Results on 1 molecule are retold here after publication PMC11094793, “Discovery of LLC0424 as a Potent and Selective in Vivo NSD2 PROTAC Degrader” (Journal of Medicinal Chemistry, 2024).

One assay deals with T1, NSD2 (Homo sapiens, UniProt O96028, E1099K).
T1 construct: from tissue; host or cells: SEM subcutaneous xenograft tumours in CB17 SCID mice
T1 sequence (O96028 1-1365 E1099K): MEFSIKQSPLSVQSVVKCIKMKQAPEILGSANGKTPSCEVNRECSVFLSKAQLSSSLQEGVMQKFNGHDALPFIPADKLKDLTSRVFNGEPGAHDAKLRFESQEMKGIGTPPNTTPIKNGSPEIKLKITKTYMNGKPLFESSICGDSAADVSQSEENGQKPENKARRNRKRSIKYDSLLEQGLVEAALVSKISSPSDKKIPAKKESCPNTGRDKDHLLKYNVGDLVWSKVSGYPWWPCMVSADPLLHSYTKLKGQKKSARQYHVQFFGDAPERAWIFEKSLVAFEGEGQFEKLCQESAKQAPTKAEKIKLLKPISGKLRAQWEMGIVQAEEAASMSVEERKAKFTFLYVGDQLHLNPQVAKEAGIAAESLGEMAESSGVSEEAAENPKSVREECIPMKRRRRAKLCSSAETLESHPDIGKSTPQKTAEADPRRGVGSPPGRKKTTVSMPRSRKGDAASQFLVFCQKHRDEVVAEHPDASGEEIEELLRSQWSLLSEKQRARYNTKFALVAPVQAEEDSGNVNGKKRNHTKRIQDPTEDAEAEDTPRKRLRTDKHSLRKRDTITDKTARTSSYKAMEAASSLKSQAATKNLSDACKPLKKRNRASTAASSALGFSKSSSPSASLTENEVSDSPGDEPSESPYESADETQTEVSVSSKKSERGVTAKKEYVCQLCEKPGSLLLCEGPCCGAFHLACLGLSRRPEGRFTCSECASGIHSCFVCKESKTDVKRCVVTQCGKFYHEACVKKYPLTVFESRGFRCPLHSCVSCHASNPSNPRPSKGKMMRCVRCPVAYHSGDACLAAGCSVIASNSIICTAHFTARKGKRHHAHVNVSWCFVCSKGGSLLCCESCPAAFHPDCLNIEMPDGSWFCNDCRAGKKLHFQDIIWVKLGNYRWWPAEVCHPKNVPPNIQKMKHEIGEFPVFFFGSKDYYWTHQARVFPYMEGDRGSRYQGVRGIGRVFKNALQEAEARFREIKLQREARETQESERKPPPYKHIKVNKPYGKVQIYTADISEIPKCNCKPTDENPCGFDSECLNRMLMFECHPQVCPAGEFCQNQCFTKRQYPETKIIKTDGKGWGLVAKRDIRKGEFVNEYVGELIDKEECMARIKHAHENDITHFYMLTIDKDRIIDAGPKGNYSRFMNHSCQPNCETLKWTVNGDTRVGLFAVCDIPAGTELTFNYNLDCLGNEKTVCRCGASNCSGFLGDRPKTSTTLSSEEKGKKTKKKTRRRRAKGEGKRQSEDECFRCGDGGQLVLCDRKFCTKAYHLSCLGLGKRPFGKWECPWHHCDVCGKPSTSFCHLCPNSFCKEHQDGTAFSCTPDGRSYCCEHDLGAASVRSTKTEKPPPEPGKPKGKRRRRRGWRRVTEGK
Put plainly: Pharmacodynamic assessment in SEM xenograft model (IHC, Western blot). To be noted: 60 mg/kg iv, 5 consecutive days, versus vehicle. The assay is classed as in vivo, mice. The protocol: We finally performed pharmacodynamic assessment of LLC0424 in both the SEM and 22RV1 xenograft model. Based on the solubility of LLC0424 and the tolerance of the mice, we chose 60 mg/kg as the dosage for the pharmacodynamic study. LLC0424 was administrated by intravenous (iv) or intraperitoneal (ip) injection at a dose of 60 mg/kg for 5 consecutive days. The tumor tissues were harvested at day 5 and subjected to histology and Western blot analysis (Figure 7A, and SI, Figure S6A).
First, 6–8 weeks old male CB17 severe combined immunodeficiency (SCID) mice were procured from the University of Michigan breeding colony. Subcutaneous tumors were established at both sides of the dorsal flank of mice. Tumors were measured at least biweekly using digital calipers following the formula (π/6) (L × W2), where L is length and W is width of the tumor. At the end of the studies, mice were sacrificed and tumors extracted. For each tumor, a part is […] followed by embedding in paraffin to make tissue blocks. The blocks were sectioned at […] for immunohistochemistry analysis. Another part is made into tissue lysates for Western blotting analysis. The University of Michigan Institutional Animal Care and Use Committee (IACUC) approved all in vivo studies. […]

The test system of a further assay is SEM cells. Put plainly: Proliferation assay (CellTiter-Glo, 9 days), SEM. The assay is classed as cell-based, human. To be noted: 5 μM (Fig 6E) or 2 μM (Fig S4A). The protocol: 2 × 10^3 cells per well were seeded in 5 replicates into 96-well plates and treated with 5 μM of the compound. Every 4 days, we added the compound with 5 μL of the 20* compound-containing mixture, reaching 1*concentration. Cell proliferation was evaluated by CellTiter-Glo assay (Promega).

SMILES strings stand for the structures.

Turning to `O=C1CCC(N2C(=O)c3ccc(N4CCC(NC(=O)c5ccc(NC(=O)c6ccc(CN(C(=O)c7ccc8c(c7)OCC(=O)N8)C7CC7)cc6)cc5)CC4)cc3C2=O)C(=O)N1` (centres unmarked) [compound 10l, N-Cyclopropyl-N-(4-((4-((1-(2-(2,6-dioxopiperidin-3-yl)-1,3-dioxoisoindolin-5-yl)piperidin-4-yl)carbamoyl)phenyl)carbamoyl)benzyl)-3-oxo-3,4-dihydro-2H-benzo[b][1,4]oxazine-7-carboxamide], the “NSD2 level in tumor tissue” value on NSD2 is given as “significantly downregulated”. In addition, in the assay with SEM cells, the “cell growth on treatment for 9 days” value was “significantly inhibited”.
